# Legend:
# Experiment in all cases: Test E preemergence
# Type in all cases: in vivo
# Settings in all cases: scale 0 to 100
# [1] = tested on: sandbur (southern sandbur, Cenchrus echinatus)
# Excerpt: (§1) Seeds of plant species selected from corn (Zea mays), soybean (Glycine max), velvetleaf (Abutilon theophrasti), cocklebur (common cocklebur, Xanthium strumarium), lambsquarters (Chenopodium album), wild poinsettia (Euphorbia heterophylla), palmer pigweed (Amaranthus palmeri), waterhemp (common waterhemp, Amaranthus rudis), surinam grass (Brachiaria decumbens), large (Lg) crabgrass (Digitaria sanguinalis), Brazilian crabgrass (Digitaria horizontalis), fall panicum (Panicum dichotomiflorum), giant foxtail (Setaria faberii), green foxtail (Setaria viridis), goosegrass (Eleusine indica), johnsongrass (Sorghum halepense), ragweed (common ragweed, Ambrosia elatior), barnyardgrass (Echinochloa crus-galli), sandbur (southern sandbur, Cenchrus echinatus), arrowleaf sida (Sida rhombifolia), Italian ryegrass (Lolium multiflorum), dayflower (Virginia (VA) dayflower, Commelina virginica), field bindweed (Convolvulus arvensis), morningglory (Ipomoea coccinea), nightshade (eastern black nightshade, Solanum ptycanthum), kochia (Kochia scoparia), yellow nutsedge (Cyperus esculentus), horseweed (Conyza canadensis), and hairy beggarticks (Bidens pilosa), were planted into a silt loam soil and treated preemergence with test chemicals formulated in a non-phytotoxic solvent mixture which included a surfactant.
# (§2) At the same time, plants from these crop and weed species and also waterhemp_RES1, (ALS & Triazine resistant common waterhemp, Amaranthus rudis), and waterhemp_RES2, (ALS & HPPD resistant common waterhemp, Amaranthus rudis) were planted in pots containing Redi-Earth® planting medium (Scotts Company, 14111 Scottslawn Road, Marysville, Ohio 43041) comprising spaghnum peat moss, vermiculite, wetting agent and starter nutrients were treated with postemergence applications of test chemicals formulated in the same manner. Plants ranged in height from 2 to 18 cm for postemergence treatments (1- to 4-leaf stage). Treated plants and controls were maintained in a greenhouse for 14 to 21 days, after which time all species were compared to controls and visually evaluated. Plant response ratings, summarized in Table E, are based on a scale of 0 to 100 where 0 is no effect and 100 is complete control. A dash (-) response means no test result.
# [2] = tested on: morningglory (Ipomoea coccinea)
# Excerpt: as §1, §2
# [3] = tested on: lambsquarters (Chenopodium album)
# Excerpt: as §1, §2
# [4] = tested on: waterhemp (common waterhemp, Amaranthus rudis)
# Excerpt: as §1, §2
# [5] = tested on: large (Lg) crabgrass (Digitaria sanguinalis)
# Excerpt: as §1, §2
# [6] = tested on: yellow nutsedge (Cyperus esculentus)
# Excerpt: as §1, §2
# [7] = tested on: barnyardgrass (Echinochloa crus-galli)
# Excerpt: as §1, §2
# [8] = tested on: goosegrass (Eleusine indica)
# Excerpt: as §1, §2
# [9] = tested on: dayflower (Virginia (VA) dayflower, Commelina virginica)
# Excerpt: as §1, §2
# [10] = tested on: nightshade (eastern black nightshade, Solanum ptycanthum)
# Excerpt: as §1, §2
# [11] = tested on: palmer pigweed (Amaranthus palmeri)
# Excerpt: as §1, §2
# [12] = tested on: corn (Zea mays)
# Excerpt: as §1, §2
# [13] = tested on: hairy beggarticks (Bidens pilosa)
# Excerpt: as §1, §2
# [14] = tested on: soybean (Glycine max)
# Excerpt: as §1, §2
# [15] = tested on: arrowleaf sida (Sida rhombifolia)
# Excerpt: as §1, §2
# [16] = tested on: Surinam grass (Brachiaria decumbens)
# Excerpt: as §1, §2
# [17] = tested on: green foxtail (Setaria viridis)
# Excerpt: as §1, §2
# [18] = tested on: fall panicum (Panicum dichotomiflorum)
# Excerpt: as §1, §2
# [19] = tested on: Italian ryegrass (Lolium multiflorum)
# Excerpt: as §1, §2
# [20] = tested on: giant foxtail (Setaria faberii)
# Excerpt: as §1, §2
# [21] = tested on: ragweed (common ragweed, Ambrosia elatior)
# Excerpt: as §1, §2
structure (smiles),measurement,setting,value
"Fc1ccc(F)c(Oc2ncc(Cl)cn2)c1Oc1ncc(Cl)cn1 [Compound 34, 2,2′-[(3,6-difluoro-1,2-phenylene)bis(oxy)]bis[5-chloropyrimidine]]","Plant response rating, Sandbur",[1]; 16 g ai/ha,0
same,"Plant response rating, Sandbur",[1]; 31 g ai/ha,0
same,"Plant response rating, Sandbur",[1]; 62 g ai/ha,10
same,"Plant response rating, Sandbur",[1]; 125 g ai/ha,70
same,"Plant response rating, Morningglory",[2]; 31 g ai/ha,20
same,"Plant response rating, Morningglory",[2]; 62 g ai/ha,50
same,"Plant response rating, Morningglory",[2]; 125 g ai/ha,65
same,"Plant response rating, Lambsquarters",[3]; 16 g ai/ha,0
same,"Plant response rating, Lambsquarters",[3]; 31 g ai/ha,70
same,"Plant response rating, Lambsquarters",[3]; 62 g ai/ha,90
same,"Plant response rating, Lambsquarters",[3]; 125 g ai/ha,100
same,"Plant response rating, Waterhemp",[4]; 16 g ai/ha,100
same,"Plant response rating, Waterhemp",[4]; 31 g ai/ha,100
same,"Plant response rating, Waterhemp",[4]; 62 g ai/ha,100
same,"Plant response rating, Waterhemp",[4]; 125 g ai/ha,100
same,"Plant response rating, Crabgrass, Large",[5]; 16 g ai/ha,0
same,"Plant response rating, Crabgrass, Large",[5]; 31 g ai/ha,25
same,"Plant response rating, Crabgrass, Large",[5]; 62 g ai/ha,98
same,"Plant response rating, Crabgrass, Large",[5]; 125 g ai/ha,98
same,"Plant response rating, Nutsedge, Yellow",[6]; 16 g ai/ha,0
same,"Plant response rating, Nutsedge, Yellow",[6]; 31 g ai/ha,0
same,"Plant response rating, Nutsedge, Yellow",[6]; 62 g ai/ha,0
same,"Plant response rating, Nutsedge, Yellow",[6]; 125 g ai/ha,0
same,"Plant response rating, Barnyardgrass",[7]; 16 g ai/ha,0
same,"Plant response rating, Barnyardgrass",[7]; 31 g ai/ha,0
same,"Plant response rating, Barnyardgrass",[7]; 62 g ai/ha,20
same,"Plant response rating, Barnyardgrass",[7]; 125 g ai/ha,60
same,"Plant response rating, Goosegrass",[8]; 16 g ai/ha,0
same,"Plant response rating, Goosegrass",[8]; 31 g ai/ha,0
same,"Plant response rating, Goosegrass",[8]; 62 g ai/ha,5
same,"Plant response rating, Goosegrass",[8]; 125 g ai/ha,80
same,"Plant response rating, Dayflower, VA",[9]; 16 g ai/ha,0
same,"Plant response rating, Dayflower, VA",[9]; 31 g ai/ha,30
same,"Plant response rating, Dayflower, VA",[9]; 62 g ai/ha,20
same,"Plant response rating, Dayflower, VA",[9]; 125 g ai/ha,90
same,"Plant response rating, Nightshade",[10]; 16 g ai/ha,50
same,"Plant response rating, Nightshade",[10]; 31 g ai/ha,50
same,"Plant response rating, Nightshade",[10]; 62 g ai/ha,80
same,"Plant response rating, Nightshade",[10]; 125 g ai/ha,95
same,"Plant response rating, Pigweed, Palmer",[11]; 16 g ai/ha,0
same,"Plant response rating, Pigweed, Palmer",[11]; 31 g ai/ha,50
same,"Plant response rating, Pigweed, Palmer",[11]; 62 g ai/ha,70
same,"Plant response rating, Pigweed, Palmer",[11]; 125 g ai/ha,100
same,"Plant response rating, Corn",[12]; 16 g ai/ha,0
same,"Plant response rating, Corn",[12]; 31 g ai/ha,0
same,"Plant response rating, Corn",[12]; 62 g ai/ha,0
same,"Plant response rating, Corn",[12]; 125 g ai/ha,0
same,"Plant response rating, Beggarticks",[13]; 16 g ai/ha,50
same,"Plant response rating, Beggarticks",[13]; 31 g ai/ha,60
same,"Plant response rating, Beggarticks",[13]; 62 g ai/ha,70
same,"Plant response rating, Beggarticks",[13]; 125 g ai/ha,75
same,"Plant response rating, Soybean",[14]; 16 g ai/ha,0
same,"Plant response rating, Soybean",[14]; 31 g ai/ha,10
same,"Plant response rating, Soybean",[14]; 62 g ai/ha,25
same,"Plant response rating, Soybean",[14]; 125 g ai/ha,60
same,"Plant response rating, Arrowleaf Sida",[15]; 16 g ai/ha,60
same,"Plant response rating, Arrowleaf Sida",[15]; 31 g ai/ha,80
same,"Plant response rating, Arrowleaf Sida",[15]; 62 g ai/ha,98
same,"Plant response rating, Arrowleaf Sida",[15]; 125 g ai/ha,100
same,"Plant response rating, Surinam Grass",[16]; 16 g ai/ha,0
same,"Plant response rating, Surinam Grass",[16]; 31 g ai/ha,0
same,"Plant response rating, Surinam Grass",[16]; 125 g ai/ha,10
same,"Plant response rating, Foxtail, Green",[17]; 16 g ai/ha,0
same,"Plant response rating, Foxtail, Green",[17]; 31 g ai/ha,10
same,"Plant response rating, Foxtail, Green",[17]; 62 g ai/ha,65
same,"Plant response rating, Foxtail, Green",[17]; 125 g ai/ha,70
same,"Plant response rating, Panicum, Fall",[18]; 16 g ai/ha,50
same,"Plant response rating, Panicum, Fall",[18]; 31 g ai/ha,80
same,"Plant response rating, Panicum, Fall",[18]; 62 g ai/ha,98
same,"Plant response rating, Panicum, Fall",[18]; 125 g ai/ha,100
same,"Plant response rating, Ryegrass, Italian",[19]; 16 g ai/ha,0
same,"Plant response rating, Ryegrass, Italian",[19]; 31 g ai/ha,0
same,"Plant response rating, Ryegrass, Italian",[19]; 62 g ai/ha,35
same,"Plant response rating, Ryegrass, Italian",[19]; 125 g ai/ha,70
same,"Plant response rating, Foxtail, Giant",[20]; 16 g ai/ha,0
same,"Plant response rating, Foxtail, Giant",[20]; 31 g ai/ha,50
same,"Plant response rating, Foxtail, Giant",[20]; 62 g ai/ha,85
same,"Plant response rating, Foxtail, Giant",[20]; 125 g ai/ha,80
same,"Plant response rating, Ragweed",[21]; 16 g ai/ha,0
same,"Plant response rating, Ragweed",[21]; 31 g ai/ha,0
same,"Plant response rating, Ragweed",[21]; 62 g ai/ha,25
same,"Plant response rating, Ragweed",[21]; 125 g ai/ha,35

# From US20170190671A1, “BIS(ARYL)CATECHOL DERIVATIVES AS HERBICIDES” (E I DU PONT DE NEMOURS AND COMPANY, priority 2014, published 2017)
